Nine compounds from DBAASP can be followed below.

Among the test systems are Escherichia coli SBS 363; Fusarium oxysporum; Micrococcus luteus; Acinetobacter baumannii; Escherichia coli 078; Escherichia coli K88; Escherichia coli K99; Escherichia coli UB1005; Staphylococcus aureus; Streptococcus mutans.
What all share (assay): ≥ marks a high value that may be exact or a test limit, other limits are often not marked, values filed in µg/mL are converted to µM
Test [1] relates to Mannheimia haemolytica 82-25.
Test [2] deals with Bordetella bronchiseptica CUN 11844-99.
Test [3] has as its system Escherichia coli ATCC 25922.
Test [4] relates to Pseudomonas aeruginosa CUN 4158-02.
The test system of test [5] is Staphylococcus aureus ATCC 25923.
The test system of test [6] is Bacillus cereus CGMCC 1.932.
The subject of test [7] is Bacillus subtilis CMCC 63501.
Test [8] deals with Enterococcus faecalis ATCC 29212.
Test [9] concerns Listeria monocytogenes CGMCC 1.1075.
Test [10] deals with Pseudomonas aeruginosa ATCC 27853.
In test [11] the test system is Pseudomonas aeruginosa PAO1.
In test [12] the test system is Salmonella enterica subsp. enterica serovar Pullorum ATCC 7913.
For test [13], the system named is Salmonella enterica subsp. enterica serovar Typhimurium ATCC 14028.
Test [14] relates to Salmonella typhimurium ATCC 7731.
Test [15] relates to Staphylococcus aureus ATCC 43300.
The test system of test [16] is Staphylococcus epidermidis ATCC 12228.
The test system of test [17] is Lacticaseibacillus casei ATCC 4646.
Test [18] has as its system Pseudomonas aeruginosa PAK.
The subject of test [19] is Streptococcus gordonii Challis DL1.
Test [20] has as its system Streptococcus mitis ATCC 903.
Test [21] deals with Streptococcus sanguinis NY101.
The subject of test [22] is Veillonella atypica PK1910.

Converted amounts (≈) assume the structure as drawn. Some results are limits rather than exact numbers.

`C[C@H](N)C(=O)N[C@@H](CC(=O)O)C(=O)N[C@@H](CC(=O)O)C(=O)N[C@@H](CC(=O)O)C(=O)N[C@@H](CC(=O)O)C(=O)N[C@@H](CC(=O)O)C(=O)N[C@@H](CC(=O)O)C(=O)O` [ADDDDDD] had a minimal inhibitory concentration (MIC) in test [1] of no less than 50 µM.

In test [1], `NCC(=O)N[C@@H](CC(=O)O)C(=O)N[C@@H](CC(=O)O)C(=O)N[C@@H](CC(=O)O)C(=O)N[C@@H](CC(=O)O)C(=O)N[C@@H](CC(=O)O)C(=O)N[C@@H](CC(=O)O)C(=O)O` [GDDDDDD] registered a minimum inhibitory concentration (MIC) of no less than 60 µM.

Take `CC[C@H](C)[C@H](NC(=O)[C@@H]1CCCN1C(=O)[C@H](CC(C)C)NC(=O)[C@H](Cc1ccc(O)cc1)NC(=O)[C@H](CCCCN)NC(=O)[C@H](CCCCN)NC(=O)[C@H](CC(C)C)NC(=O)[C@H](C)NC(=O)[C@H](CO)NC(=O)[C@H](CC(C)C)NC(=O)[C@H](Cc1ccccc1)NC(=O)CN)C(=O)N[C@H](C(=O)N[C@@H](CC(C)C)C(=O)N[C@@H](CCCCN)C(=O)N[C@@H](Cc1cnc[nH]1)C(=O)N[C@H](C(=O)O)C(C)C)C(C)C` [GFLSALKKYLPIVLKHV]: the minimum inhibitory concentration (MIC) in the test on Escherichia coli SBS 363 was 3.12 µM (≈ 6.02 µg/mL); in the test on Fusarium oxysporum it was 0.78 µM (≈ 1.5 µg/mL); against Micrococcus luteus it was 1.56 µM (≈ 3.01 µg/mL).

As for `CC(C)C[C@H](NC(=O)CNC(=O)[C@H](CCCCN)NC(=O)[C@H](Cc1ccccc1)NC(=O)[C@H](CCCCN)NC(=O)[C@H](Cc1c[nH]c2ccccc12)NC(=O)[C@H](CCCN=C(N)N)NC(=O)[C@H](Cc1ccccc1)NC(=O)[C@H](CCCN=C(N)N)NC(=O)[C@H](CCCN=C(N)N)NC(=O)[C@H](Cc1ccc(O)cc1)NC(=O)[C@H](CCCCN)NC(=O)[C@H](CCCCN)NC(=O)CN)C(=O)N[C@@H](Cc1ccccc1)C(=O)N[C@@H](CC(C)C)C(=O)N[C@@H](Cc1ccccc1)C(=O)N[C@@H](CC(C)C)C(=O)NCC(N)=O` [GKKYRRFRWKFKGLFLFLG], the MIC in test [2] is 6.54 µM (≈ 16 µg/mL); in test [3], 26.1 µM (≈ 64 µg/mL); in test [4] it was 26.1 µM (≈ 64 µg/mL); in [5], 26.1 µM (≈ 64 µg/mL).

For `CC[C@H](C)[C@H](NC(=O)[C@H](CCCN=C(N)N)NC(=O)[C@H](Cc1c[nH]c2ccccc12)NC(=O)[C@H](CCCN=C(N)N)NC(=O)[C@H](Cc1c[nH]c2ccccc12)NC(=O)[C@H](Cc1c[nH]c2ccccc12)NC(=O)[C@H](Cc1c[nH]c2ccccc12)NC(=O)[C@H](CCCN=C(N)N)NC(=O)[C@H](Cc1c[nH]c2ccccc12)NC(=O)[C@H](CCCN=C(N)N)NC(=O)CN)C(N)=O` [GRWRWWWRWRI], the minimal inhibitory concentration (MIC) is 2 µM (≈ 3.49 µg/mL) against Acinetobacter baumannii; 8 µM (≈ 13.9 µg/mL) in test [6]; 4 µM (≈ 6.97 µg/mL) in [7]; 2 µM (≈ 3.49 µg/mL) in test [8]; 4 µM (≈ 6.97 µg/mL) against Escherichia coli 078; 4 µM (≈ 6.97 µg/mL) against Escherichia coli K88. Besides, the minimal inhibitory concentration (MIC) amounted to 8 µM (≈ 13.9 µg/mL) against Escherichia coli K99; 8 µM (≈ 13.9 µg/mL) against Escherichia coli UB1005; 1 µM (≈ 1.74 µg/mL) in [9]; 8 µM (≈ 13.9 µg/mL) in [10]; 8 µM (≈ 13.9 µg/mL) in [11]; 2 µM (≈ 3.49 µg/mL) in [12]. Also, the MIC in test [13] came to 4 µM (≈ 6.97 µg/mL); in test [14] it was 16 µM (≈ 27.9 µg/mL); in [5], 2 µM (≈ 3.49 µg/mL); in test [15], 4 µM (≈ 6.97 µg/mL); in [16], 4 µM (≈ 6.97 µg/mL).

As to `CC[C@H](C)[C@H](N)C(=O)N[C@@H](CCCCN)C(=O)N[C@@H](CCC(N)=O)C(=O)N[C@@H](CC(C)C)C(=O)N[C@@H](CC(C)C)C(=O)N[C@@H](Cc1cnc[nH]1)C(=O)N[C@@H](Cc1ccccc1)C(=O)N[C@@H](Cc1ccccc1)C(=O)N[C@@H](CCC(N)=O)C(=O)N[C@@H](CCCN=C(N)N)C(=O)N[C@@H](Cc1ccccc1)C(N)=O` [IKQLLHFFQRF], the MIC was 21.7 µM (≈ 32 µg/mL) in [17]; no less than 42.3 µM in test [18]; 42.3 µM (≈ 62.5 µg/mL) with Staphylococcus aureus; 21.7 µM (≈ 32 µg/mL) in [19]; no less than 42.8 µM in [20]; 16.3 µM (≈ 24 µg/mL) against Streptococcus mutans. Further, the values for the MIC in test [21] and in [22] were no less than 42.8 µM and no less than 43.3 µM, respectively.

On to `NC(=O)[C@H](Cc1ccccc1)NC(=O)[C@H](Cc1c[nH]c2ccccc12)NC(=O)[C@H](Cc1c[nH]c2ccccc12)NC(=O)[C@H](Cc1c[nH]c2ccccc12)NC(=O)[C@H](CCCN=C(N)N)NC(=O)[C@H](CCCN=C(N)N)NC(=O)[C@@H](N)CCCN=C(N)N` [RRRWWWF], for which the MIC in test [17] is 13.4 µM (≈ 16 µg/mL); in test [19], 26.8 µM (≈ 32 µg/mL); in [20] it was 26.8 µM (≈ 32 µg/mL); with Streptococcus mutans, 4.74 µM (≈ 5.65 µg/mL); in test [21], 13.4 µM (≈ 16 µg/mL); in test [22], no less than 53.7 µM.

Turning to `CC(C)[C@H](NC(=O)[C@H](CCCN=C(N)N)NC(=O)[C@H](Cc1c[nH]c2ccccc12)NC(=O)[C@H](CCCN=C(N)N)NC(=O)[C@H](Cc1c[nH]c2ccccc12)NC(=O)[C@H](Cc1c[nH]c2ccccc12)NC(=O)[C@H](Cc1c[nH]c2ccccc12)NC(=O)[C@H](CCCN=C(N)N)NC(=O)[C@H](Cc1c[nH]c2ccccc12)NC(=O)[C@@H](N)CCCN=C(N)N)C(N)=O` [RWRWWWRWRV], the MIC with Acinetobacter baumannii was 2 µM (≈ 3.34 µg/mL); in [6] it was 16 µM (≈ 26.8 µg/mL); in test [7] it was 4 µM (≈ 6.69 µg/mL); in test [8], 4 µM (≈ 6.69 µg/mL); in the test with Escherichia coli 078, 4 µM (≈ 6.69 µg/mL); against Escherichia coli K88, 4 µM (≈ 6.69 µg/mL). Further, the MIC turned out to be 8 µM (≈ 13.4 µg/mL) against Escherichia coli K99; 8 µM (≈ 13.4 µg/mL) with Escherichia coli UB1005; 1 µM (≈ 1.67 µg/mL) in test [9]; 16 µM (≈ 26.8 µg/mL) in test [10]; 16 µM (≈ 26.8 µg/mL) in test [11]; 4 µM (≈ 6.69 µg/mL) in test [12]. The minimum inhibitory concentration (MIC) in test [13] was determined as 8 µM (≈ 13.4 µg/mL); in test [14] it was 8 µM (≈ 13.4 µg/mL); in test [5], 4 µM (≈ 6.69 µg/mL); in [15], 4 µM (≈ 6.69 µg/mL); in [16], 4 µM (≈ 6.69 µg/mL).

Regarding `NC(=O)[C@H](Cc1c[nH]c2ccccc12)NC(=O)[C@H](CCCN=C(N)N)NC(=O)[C@H](Cc1c[nH]c2ccccc12)NC(=O)[C@H](CCCN=C(N)N)NC(=O)[C@H](Cc1c[nH]c2ccccc12)NC(=O)[C@H](Cc1c[nH]c2ccccc12)NC(=O)[C@H](Cc1c[nH]c2ccccc12)NC(=O)[C@H](CCCN=C(N)N)NC(=O)[C@H](Cc1c[nH]c2ccccc12)NC(=O)[C@@H](N)CCCN=C(N)N` [RWRWWWRWRW], the MIC was found to be 2 µM (≈ 3.52 µg/mL) in the test on Acinetobacter baumannii; 4 µM (≈ 7.04 µg/mL) in [6]; 8 µM (≈ 14.1 µg/mL) in test [7]; 4 µM (≈ 7.04 µg/mL) in test [8]; 2 µM (≈ 3.52 µg/mL) against Escherichia coli 078; 2 µM (≈ 3.52 µg/mL) with Escherichia coli K88. The minimal inhibitory concentration (MIC) with Escherichia coli K99 came to 8 µM (≈ 14.1 µg/mL); in the test on Escherichia coli UB1005 it was 4 µM (≈ 7.04 µg/mL); in test [9], 1 µM (≈ 1.76 µg/mL); in [10], 32 µM (≈ 56.3 µg/mL); in test [11], 4 µM (≈ 7.04 µg/mL); in test [12], 4 µM (≈ 7.04 µg/mL). Also, the minimal inhibitory concentration (MIC) was determined as 8 µM (≈ 14.1 µg/mL) in test [13]; 8 µM (≈ 14.1 µg/mL) in test [14]; 2 µM (≈ 3.52 µg/mL) in test [5]; 2 µM (≈ 3.52 µg/mL) in test [15]; 2 µM (≈ 3.52 µg/mL) in [16].

As usually defined, the MIC is the lowest concentration found to suppress growth. Higher therefore signals weaker potency.
